Results reported in PubChem BioAssay (NCI).
Values joined by “and” are separate entries in the source; they are usually repeats but may differ in a detail not shown here. Equal values may be shown once.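 96-well plates; 48 h exposure; 5 concentrations. Endpoints by linear interpolation between flanking doses. Not reached: highest tested concentration assigned. The concentration for 50% growth inhibition is given as GI50. The concentration for full growth arrest is given as TGI.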

How the values were obtained:
Experiment in all cases: growth of human tumour cells (NCI), 48 h
LOX IMVI melanoma = tested on: LOX IMVI melanoma
SF-295 CNS = tested on: SF-295 CNS
HOP-62 NSCLC = tested on: HOP-62 NSCLC
NCI-H460 lung = tested on: NCI-H460 lung
CAKI-1 renal = tested on: CAKI-1 renal
HCT-116 colon = tested on: HCT-116 colon
TK-10 renal = tested on: TK-10 renal
SF-268 CNS = tested on: SF-268 CNS
MALME-3M melanoma = tested on: MALME-3M melanoma

`CC(=O)C1CC2(c3ccc(C)cc3)C(c3ccc(C)cc3)=C(c3ccc(C)cc3)C1(c1ccc(C)cc1)S2=O` (stereo unspecified) gave a GI50 (LOX IMVI melanoma) greater than 100 µM, a TGI (LOX IMVI melanoma) greater than 100 µM and a GI50 (SF-295 CNS) of 85 µM. It also gave a TGI (SF-295 CNS) greater than 100 µM, a GI50 (HOP-62 NSCLC) greater than 100 µM and a TGI (HOP-62 NSCLC) greater than 100 µM. It also gave a GI50 (NCI-H460 lung) greater than 100 µM, a TGI (NCI-H460 lung) greater than 100 µM and a GI50 (CAKI-1 renal) greater than 100 µM. It also gave a TGI (CAKI-1 renal) greater than 100 µM, a GI50 (HCT-116 colon) greater than 100 µM and a TGI (HCT-116 colon) greater than 100 µM. It also gave a GI50 (TK-10 renal) greater than 100 µM, a TGI (TK-10 renal) greater than 100 µM and a GI50 (SF-268 CNS) greater than 100 µM. For the same compound, the TGI (SF-268 CNS) was greater than 100 µM, the GI50 (MALME-3M melanoma) was greater than 100 µM and the TGI (MALME-3M melanoma) was greater than 100 µM.
For `COc1ccc2nc(-c3ccccc3)cc(Nc3ccc(C(C)=O)cc3)c2c1`, the TGI (SF-295 CNS) was 1.57 µM, the GI50 (NCI-H460 lung) was 5.73 µM and the TGI (NCI-H460 lung) was 19.3 µM. It also gave a GI50 (HCT-116 colon) of 1.54 µM, a TGI (HCT-116 colon) of 4.62 µM and a GI50 (TK-10 renal) of 5.24 µM. For the same compound, the TGI (TK-10 renal) was 17.2 µM, the GI50 (SF-268 CNS) was 7.51 µM and the TGI (SF-268 CNS) was 31 µM. It also gave a GI50 (MALME-3M melanoma) of 5.28 µM and a TGI (MALME-3M melanoma) of 18.7 µM.
`COC(=O)/C=C(C)/C=C/c1cc(C(C)=O)c(C)o1` showed a TGI (LOX IMVI melanoma) greater than 100 µM, a TGI (SF-295 CNS) greater than 100 µM and a TGI (HOP-62 NSCLC) greater than 100 µM. For the same compound, the TGI (NCI-H460 lung) was greater than 100 µM, the TGI (CAKI-1 renal) was greater than 100 µM and the TGI (HCT-116 colon) was greater than 100 µM. It also gave a TGI (SF-268 CNS) greater than 100 µM and a TGI (MALME-3M melanoma) greater than 100 µM.
`CCOC(=O)/C(=C\c1ccc(OCc2ccccc2)c(OC)c1)C(=O)c1ccccc1` gave a TGI (LOX IMVI melanoma) of 30 µM, a TGI (SF-295 CNS) of 46.8 µM and a TGI (HOP-62 NSCLC) of 33.6 µM. For the same compound, the TGI (CAKI-1 renal) was 64.7 µM, the TGI (HCT-116 colon) was 31.3 µM and the TGI (TK-10 renal) was 61 µM. It also gave a TGI (MALME-3M melanoma) of 32.3 µM.
Work on `COc1ccc2c([nH]c3cc(O)c(C)cc32)c1C=O` yielded a TGI (LOX IMVI melanoma) greater than 25 µM, a TGI (HOP-62 NSCLC) greater than 25 µM and a TGI (NCI-H460 lung) greater than 25 µM. The TGI (HCT-116 colon) was greater than 25 µM, the TGI (TK-10 renal) was greater than 25 µM and the TGI (SF-268 CNS) was greater than 25 µM. It also gave a TGI (MALME-3M melanoma) greater than 25 µM.
`CC1(CO)OC1COCc1ccccc1` (stereo unspecified) was tested, and the TGI (LOX IMVI melanoma) was greater than 100 µM, the TGI (SF-295 CNS) was greater than 100 µM and the TGI (HOP-62 NSCLC) was greater than 100 µM. For the same compound, the TGI (NCI-H460 lung) was greater than 100 µM, the TGI (SF-268 CNS) was greater than 100 µM and the TGI (MALME-3M melanoma) was greater than 100 µM.
In the case of `COc1ccc(CNc2nc3cc(N)cc(N)c3nc2-c2ccccc2)cc1OC`, the GI50 (LOX IMVI melanoma) is reported as 6.53 µM, the TGI (LOX IMVI melanoma) is reported as greater than 37.6 µM and the GI50 (SF-295 CNS) is reported as 15.3 µM. It also gave a TGI (SF-295 CNS) of 29.8 µM, a GI50 (HOP-62 NSCLC) of 18.8 µM and a TGI (HOP-62 NSCLC) of 34.4 µM. The GI50 (NCI-H460 lung) was 27.1 µM, the TGI (NCI-H460 lung) was greater than 95.3 µM and the GI50 (CAKI-1 renal) was 12.6 µM. For the same compound, the TGI (CAKI-1 renal) was 26.2 µM, the GI50 (HCT-116 colon) was 15.4 µM and the TGI (HCT-116 colon) was 31.5 µM. It also gave a GI50 (TK-10 renal) of 16.8 µM, a TGI (TK-10 renal) of 32.8 µM and a GI50 (SF-268 CNS) of 16.6 µM. The TGI (SF-268 CNS) was 65.9 µM, the GI50 (MALME-3M melanoma) was 3.98 µM and the TGI (MALME-3M melanoma) was 14.4 µM.
In the case of `O=C1CCCCCCCC/C=C/CCC(c2ccco2)O1` (stereo unspecified), the GI50 (LOX IMVI melanoma) is reported as 35.3 µM, the TGI (LOX IMVI melanoma) is reported as 87.3 µM and the GI50 (SF-295 CNS) is reported as 18.6 µM. The TGI (SF-295 CNS) was greater than 100 µM, the GI50 (HOP-62 NSCLC) was 41.2 µM and the TGI (HOP-62 NSCLC) was greater than 100 µM. For the same compound, the GI50 (NCI-H460 lung) was greater than 100 µM, the TGI (NCI-H460 lung) was greater than 100 µM and the GI50 (CAKI-1 renal) was greater than 100 µM. It also gave a TGI (CAKI-1 renal) greater than 100 µM, a GI50 (HCT-116 colon) of 31.2 µM and a TGI (HCT-116 colon) greater than 100 µM. It also gave a GI50 (TK-10 renal) of 23.5 µM, a TGI (TK-10 renal) greater than 100 µM and a GI50 (SF-268 CNS) of 44.3 µM. The TGI (SF-268 CNS) was greater than 100 µM, the GI50 (MALME-3M melanoma) was 6.7 µM and the TGI (MALME-3M melanoma) was 62.6 µM.
With `COc1ccc(/C=C2\CN(C(=O)C(Cl)Cl)C/C(=C\c3ccc(OC)c(OC)c3)C2=O)cc1OC` the GI50 (LOX IMVI melanoma) was 0.0282 µM, the TGI (LOX IMVI melanoma) was 0.0965 µM and the GI50 (SF-295 CNS) was 0.243 µM. The TGI (SF-295 CNS) was 0.803 µM, the GI50 (HOP-62 NSCLC) was 0.883 µM and the GI50 (NCI-H460 lung) was 0.371 µM. It also gave a TGI (NCI-H460 lung) of 1.72 µM, a GI50 (CAKI-1 renal) of 0.368 µM and a TGI (CAKI-1 renal) of 1.98 µM. It also gave a GI50 (HCT-116 colon) of 0.0306 µM, a TGI (HCT-116 colon) of 0.103 µM and a GI50 (SF-268 CNS) of 2.42 µM. It also gave a TGI (SF-268 CNS) greater than 100 µM.
`C[C@@H]1O[C@@H](O[C@@H]2[C@@H](O)[C@H](OCCc3ccc(O)c(O)c3)O[C@H](COC(=O)/C=C/c3ccc(O)c(O)c3)[C@H]2O)[C@H](O)[C@H](O)[C@H]1O` gave a GI50 (LOX IMVI melanoma) of 18.3 µM, a TGI (LOX IMVI melanoma) of 34.4 µM and a GI50 (SF-295 CNS) greater than 100 µM. It also gave a TGI (SF-295 CNS) greater than 100 µM, a GI50 (HOP-62 NSCLC) greater than 100 µM and a TGI (HOP-62 NSCLC) greater than 100 µM. It also gave a GI50 (NCI-H460 lung) greater than 100 µM, a TGI (NCI-H460 lung) greater than 100 µM and a GI50 (CAKI-1 renal) of 98.3 µM. For the same compound, the TGI (CAKI-1 renal) was greater than 100 µM, the GI50 (HCT-116 colon) was 36.1 µM and the TGI (HCT-116 colon) was 75.3 µM. The GI50 (TK-10 renal) was greater than 100 µM and the TGI (TK-10 renal) was greater than 100 µM.
Work on `N#CC1=C(N)NC(=S)NC12Nc1ccccc1O2` (stereo unspecified) yielded a GI50 (LOX IMVI melanoma) of 20.2 µM, a TGI (LOX IMVI melanoma) of 50.4 µM and a GI50 (SF-295 CNS) of 38.4 µM. It also gave a TGI (SF-295 CNS) greater than 100 µM, a GI50 (HOP-62 NSCLC) of 17.5 µM and a TGI (HOP-62 NSCLC) of 57.7 µM. For the same compound, the GI50 (NCI-H460 lung) was 65.5 µM, the TGI (NCI-H460 lung) was greater than 100 µM and the GI50 (CAKI-1 renal) was 39.1 µM. The TGI (CAKI-1 renal) was greater than 100 µM, the GI50 (HCT-116 colon) was 22.5 µM and the TGI (HCT-116 colon) was 85.2 µM. It also gave a GI50 (TK-10 renal) of 42.5 µM, a TGI (TK-10 renal) greater than 100 µM and a GI50 (SF-268 CNS) of 51.2 µM. The TGI (SF-268 CNS) was greater than 100 µM, the GI50 (MALME-3M melanoma) was greater than 100 µM and the TGI (MALME-3M melanoma) was greater than 100 µM.
`CN(C)CC(/C(Cc1ccccc1)=N\NC(=O)c1ccncc1)c1ccccc1` (stereo unspecified) showed a TGI (LOX IMVI melanoma) greater than 100 µM, a TGI (SF-295 CNS) of 68.3 µM and a TGI (HOP-62 NSCLC) greater than 100 µM. The TGI (CAKI-1 renal) was greater than 100 µM, the TGI (TK-10 renal) was greater than 100 µM and the TGI (SF-268 CNS) was greater than 100 µM. It also gave a TGI (MALME-3M melanoma) of 93.4 µM.
For `COc1ccc(/C=C\c2cc(OC)c(OC)c(OC)c2)cc1OC(=O)C(N)CCC(=O)O` (stereo unspecified), the GI50 (LOX IMVI melanoma) was 0.000605 µM and 0.000284 µM and < 0.0001 µM, the TGI (LOX IMVI melanoma) was greater than 33.9 µM and the TGI (HOP-62 NSCLC) was greater than 100 µM. For the same compound, the GI50 (NCI-H460 lung) was 0.00112 µM, the GI50 (HCT-116 colon) was 0.000425 µM and the TGI (TK-10 renal) was greater than 100 µM. The GI50 (MALME-3M melanoma) was 0.00136 µM.
Work on `O=[N+]([O-])c1ccc(Sc2c3ccccc3nc3ccccc23)cc1` yielded a TGI (LOX IMVI melanoma) greater than 100 µM, a TGI (SF-295 CNS) greater than 100 µM and a TGI (HOP-62 NSCLC) greater than 100 µM. The TGI (NCI-H460 lung) was greater than 100 µM, the TGI (CAKI-1 renal) was greater than 100 µM and the TGI (HCT-116 colon) was greater than 100 µM. It also gave a TGI (SF-268 CNS) greater than 100 µM and a TGI (MALME-3M melanoma) greater than 100 µM.
In the case of `N#CC1=C(N)N=C(N2CCCCC2)C(C#N)C12Nc1ccccc1S2` (stereo unspecified), the GI50 (LOX IMVI melanoma) is reported as 20.7 µM, the TGI (LOX IMVI melanoma) is reported as 51.8 µM and the GI50 (SF-295 CNS) is reported as 37.7 µM. For the same compound, the TGI (SF-295 CNS) was greater than 100 µM, the GI50 (HOP-62 NSCLC) was 27.7 µM and the TGI (HOP-62 NSCLC) was greater than 100 µM. For the same compound, the GI50 (NCI-H460 lung) was 27 µM, the TGI (NCI-H460 lung) was greater than 100 µM and the GI50 (HCT-116 colon) was 23 µM. The TGI (HCT-116 colon) was greater than 100 µM, the GI50 (TK-10 renal) was 29.6 µM and the TGI (TK-10 renal) was greater than 100 µM. It also gave a GI50 (SF-268 CNS) of 18.9 µM, a TGI (SF-268 CNS) of 67.2 µM and a GI50 (MALME-3M melanoma) of 47.2 µM. For the same compound, the TGI (MALME-3M melanoma) was greater than 100 µM.
